Data published in patent US11814376B2, “Hepatitis b core protein modulators” (Assembly Biosciences, Inc., priority 2015, dated 2023).

Experiments:
[1] = system: HBV viral load in AD38 cells; assay: Viral load production in AD38 cells, quantitative PCR of the core sequence in supernatant; assay type: cell-based; conditions: Hepatitis B virus, 144 h, 10 μM compound, 6 days at 37° C., supernatant qPCR, relative to DMSO control; read-out: AD38 Viral Load (%) (VL with cmpd/VL in DMSO control) at 10 μM
[2] = system: AD38 cells; assay: Viability of AD38 cells (Promega CellTiter-Glo); assay type: cell-based; conditions: 10 μM compound, 6 days, CellTiter-Glo luminescence normalized to DMSO control (100%)
Summary of the method: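 After 6 days of compound exposure at 37° C (compound added as 10× solution in 10% DMSO; 50,000 cells/well, collagen-coated), medium was replaced with tetracycline-free DMEM/F12, 2% FBS, 1% DMSO. CellTiter-Glo luminescence was then recorded and normalized to DMSO-treated wells as 100% viability.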

SMILES | activity at 10 µM [1] [%] | AD38 Viability Normalized Result (cmpd/DMSO %) at 10 μM [2] [%]
Nc1ccc(-c2ncc(CNC(=O)c3ccc4c(c3)NC(=O)c3ccccc3O4)s2)cn1 [compound 1707, N-((2-(6-aminopyridin-3-yl)thiazol-5-yl)methyl)-11-oxo-10, 11-dihydrodibenzo [b, f] [1, 4] oxazepine-8-carboxamide] | 10.7 | 88
O=C(O)COc1ccc(-c2ncc(CNC(=O)c3ccc4c(c3)NC(=O)c3ccccc3S4)s2)cc1 [compound 1607, 2-(4-(5-((11-oxo-10, 11-dihydrodibenzo [b, f] [1, 4]thiazepine-8-carboxamido)methyl)thiazol-2-yl)phenoxy) acetic acid] | 52.8 | 98
Cc1c(C(=O)NCc2cnc(C(F)(F)F)s2)ccc2c1NC(=O)c1ccccc1S2 [compound 1766] | 1.3 | 98
O=C(NCc1cnc(-c2ccc(OCC3CCNCC3)cc2)s1)c1ccc2c(c1)NC(=O)c1ccccc1S2(=O)=O [compound 11137, 11-oxo-N-((2-(4-(piperidin-4-ylmethoxy)phenyl)thiazol-5-yl)methyl)-10, 11-dihydrodibenzo [b, f] [1, 4] thiazepine-8-carboxamide 5,5-dioxide] | 3.6 | 96
O=C(NCc1cnc(-c2ccc(SCCCN3CCOCC3)cc2)s1)c1ccc2c(c1)NC(=O)c1ccccc1S2(=O)=O [compound 11066, N-((2-(4-((3-morpholinopropyl)thio)phenyl)thiazol-5-yl)methyl)-11-oxo-10, 11-dihydrodibenzo [b, f] [1, 4] thiazepine-8-carboxamide 5,5-dioxide] | 0.4 | 104
O=C(NCc1cnc(-c2ccc(OCCCN(CCO)CCO)cc2)s1)c1ccc2c(c1)NC(=O)c1ccccc1S2(=O)=O [compound 1998] | 3.7 | 99
CN(C)CCCOc1ccc(-c2ncc(CNC(=O)c3ccc4c(c3)NC(=O)c3ccccc3S4(=O)=O)s2)nc1 [compound 11011, N-((2-(5-(3-(dimethylamino)propoxy)pyridin-2-yl)thiazol-5-yl)methyl)-11-oxo-10, 11-dihydrodibenzo [b, f] [1, 4] thiazepine-8-carboxamide 5,5-dioxide] | 5.3 | 98
O=C(NCc1cnc(-c2ccc3ncccc3c2)s1)c1ccc2c(c1)NC(=O)c1ccccc1S2(=O)=O [compound 1819] | 0.5 | 118
Cl.O=C(NCc1cnc(-c2ccc(N3CCNCC3)nc2)s1)c1ccc2c(c1)NC(=O)c1ccccc1S2(=O)=O [compound 11019, 11-oxo-N-((2-(6-(piperazin-1-yl)pyridin-3-yl)thiazol-5-yl)methyl)-10, 11-dihydrodibenzo [b, f] [1, 4] thiazepine-8-carboxamide 5,5-dioxide hydrochloride] | 14.3 | 93
CC(C)(C)NCCCOc1ccc(-c2ncc(CNC(=O)c3ccc4c(c3)NC(=O)c3ccccc3S4(=O)=O)s2)cc1 [compound 1990, N-((2-(4-(3-(tert-butylamino)propoxy)phenyl)thiazol-5-yl)methyl)-11-oxo-10, 11-dihydrodibenzo [b, f] [1, 4] thiazepine-8-carboxamide 5,5-dioxide] | 4.1 | 98
O=C(NCc1cnc(-c2ccc3cnccc3c2)s1)c1ccc2c(c1)NC(=O)c1ccccc1S2(=O)=O [compound 1820] | 3.2 | 105
Cl.O=C(NCc1cnc(-c2ccc(C(=O)N3CCNCC3)cc2)s1)c1ccc2c(c1)NC(=O)c1ccccc1S2(=O)=O [compound 11016, 11-oxo-N-((2-(4-(piperazine-1-carbonyl)phenyl)thiazol-5-yl)methyl)-10, 11-dihydrodibenzo [b, f] [1, 4] thiazepine-8-carboxamide 5,5-dioxide hydrochloride] | 38.8 | 106
CC(C)c1cnn(-c2ncc(CNC(=O)c3ccc4c(c3)NC(=O)c3ccccc3S4(=O)=O)s2)c1 [11117-A] | 0.3 | 110
O=C(O)COc1ccc(-c2ncc(CNC(=O)c3ccc4c(c3)NC(=O)c3ccccc3O4)s2)cc1 [compound 1620, 2-(4-(5-((11-oxo-10, 11-dihydrodibenzo [b, f] [1, 4]oxazepine-8-carboxamido)methyl)thiazol-2-yl)phenoxy) acetic acid] | 41.9 | 103
O=C(NCc1cnc(N2CCS(=O)(=O)CC2)s1)c1ccc2c(c1)NC(=O)c1ccccc1S2(=O)=O [compound 1860] | 7.5 | 98
Cc1c(C(=O)NCc2cnc(-c3ccc(C#N)cc3)s2)ccc2c1NC(=O)c1ccccc1S2(=O)=O [compound 1877] | 0.2 | 96

SMILES | activity at 10 µM [1] [%] | AD38 Viability Normalized Result (cmpd/DMSO %) at 10 μM [2] [%]
CN(C)CC1(COc2ccc(-c3ncc(CNC(=O)c4ccc5c(c4)NC(=O)c4ccccc4S5(=O)=O)s3)cc2)CC1 [compound 11112] | 4 | 100
O=C(NCc1cnc(-c2ccncc2)s1)c1ccc2c(c1)NC(=O)c1ccccc1S2(=O)=O [compound 1625] | 51.9 | 96
Cl.N=C(N)c1ccc(-c2ncc(CNC(=O)c3ccc4c(c3)NC(=O)c3ccccc3S4(=O)=O)s2)cc1 [compound 1653, N-((2-(4-carbamimidoylphenyl)thiazol-5-yl)methyl)-11-oxo-10, 11-dihydrodibenzo [b, f] [1, 4] thiazepine-8-carboxamide 5,5-dioxide hydrochloride] | 65.4 | 108
COc1ccc(-c2ncc(CNC(=O)c3ccc4c(c3)NC(=O)c3ccccc3S4(=O)=O)s2)nc1 [1879-A] | 2.5 | 121
O=C(NCc1cnc(-c2ccc(F)cc2)s1)c1ccc2c(c1)NC(=O)c1ccccc1O2 [compound 1561] | 10.3 | 96
CN(C)C(=O)c1ccc(-c2ncc(CNC(=O)c3ccc4c(c3)NC(=O)c3ccccc3S4(=O)=O)s2)cc1 [compound 1944] | 2.5 | 93
Cc1ncc(CNC(=O)c2ccc3c(c2C)NC(=O)c2ccccc2S3)s1 [compound 1535] | 0.8 | 84
O=C(NCc1cnc(-c2ccc(CCCCN3CCOCC3)cc2)s1)c1ccc2c(c1)NC(=O)c1ccccc1S2(=O)=O [compound 11056] | 0.8 | 96
CC(C)(C)OC(=O)NCCNC(=O)c1ccc(-c2ncc(CNC(=O)c3ccc4c(c3)NC(=O)c3ccccc3S4(=O)=O)s2)cc1 [11017-A, tert-butyl (2-(4-(5-((5,5-dioxido-11-oxo-10, 11-dihydrodibenzo [b, f] [1, 4]thiazepine-8-carboxamido)methyl)thiazol-2-yl)benzamido)ethyl)carbamate] | 8.8 | 102
CN(C)CCCOc1ncc(CNC(=O)c2ccc3c(c2)NC(=O)c2ccccc2O3)s1 [compound 1691, N-((2-(3-(dimethylamino)propoxy)thiazol-5-yl)methyl)-11-oxo-10, 11-dihydrodibenzo [b, f] [1, 4] oxazepine-8-carboxamide] | 77.1 | 89
O=C(NCc1cnc(-c2ccc(OC[C@@H]3CCNC3)cc2)s1)c1ccc2c(c1)NC(=O)c1ccccc1S2(=O)=O [compound 11140, (R)-11-oxo-N-((2-(4-(pyrrolidin-3-ylmethoxy)phenyl)thiazol-5-yl)methyl)-10, 11-dihydrodibenzo [b, f] [1, 4] thiazepine-8-carboxamide 5,5-dioxide] | 5.5 | 99
CC1c2ccc(C(=O)NCc3cncs3)cc2NC(=O)c2ccccc21 (stereo not shown) [compound 1546] | 2.2 | 97
COc1cc2c(cc1C(=O)NCc1cnc(-c3ccc(C#N)cc3)s1)NC(=O)c1ccccc1S2(=O)=O [1901-A, N-((2-(4-cyanophenyl)thiazol-5-yl)methyl)-7-methoxy-11-oxo-10, 11-dihydrodibenzo [b, f] [1, 4] thiazepine-8-carboxamide 5,5-dioxide] | 3 | 118
Cl.NCc1ccccc1-c1ncc(CNC(=O)c2ccc3c(c2)NC(=O)c2ccccc2S3(=O)=O)s1 [compound 1841, N-((2-(2-(aminomethyl)phenyl)thiazol-5-yl)methyl)-11-oxo-10, 11-dihydrodibenzo [b, f] [1, 4] thiazepine-8-carboxamide 5,5-dioxide hydrochloride] | 9.1 | 104
CN(C)CCCCc1ccc(-c2ncc(CNC(=O)c3ccc4c(c3)NC(=O)c3ccccc3S4(=O)=O)s2)cc1 [compound 11005, N-((2-(4-(4-(dimethylamino)butyl)phenyl)thiazol-5-yl)methyl)-11-oxo-10, 11-dihydrodibenzo [b, f] [1, 4] thiazepine-8-carboxamide 5,5-dioxide] | 1.9 | 102
CCN1c2ccc(C(=O)NCc3cnc(-c4ccc(C#N)cc4)s3)cc2NC(=O)c2ccccc21 [compound 1975] | 1 | 63
